{
  "source": "ChEMBL document CHEMBL5131417",
  "about": "“Metabolic installation of macrophage-recruiting glycan ligand on tumor cell surface for in vivo tumor suppression” (Bioorg Med Chem Lett, 2022)",
  "key": {"B16-F10 [1]": {"system": "B16-F10", "test": "Antitumor activity against B16-F10 cells implanted in C57BL/6 mouse assessed as reduction in tumor volume at 30 mg/kg, iv dosed on 2nd, 4th, 6th, 8th, 10th, 12th and 14th day post tumor transplantation", "type": "functional", "design": "scale not given: the % may be the effect or the level left", "settings": "time 14 day"}, "U-87 MG": {"system": "U-87 MG", "test": "Drug distribution in plasma membrane of human U87 cells at 100 uM incubated for 24 hrs by confocal microscopy", "type": "ADME, cell-based", "settings": "u-87mg atcc"}, "[2]": {"test": "Drug distribution in plasma membrane of mouse B16-F10 cells at 100 uM incubated for 24 hrs by confocal microscopy", "type": "ADME, cell membranes", "settings": "b16-f10, 24 h"}, "[3]": {"test": "Toxicity in mouse B16-F10 cells assessed as effect on cell viability at 0.1 to 100 uM incubated for 24 hrs", "type": "cell-based", "settings": "b16-f10, 24 h, dose 0.1-100 µM"}, "B16-F10 [4]": {"system": "B16-F10", "test": "Activation of binding of GFP-expressed mouse B16-F10 cells with mouse RAW264.7 cells at 100 uM incubated for 24 hrs by fluorescence microscopy", "type": "functional, cell-based"}, "B16-F10 [5]": {"system": "B16-F10", "test": "Antitumor activity against B16-F10 cells implanted in C57BL/6 mouse assessed as reduction in size and number of metastasis in lung at 30 mg/kg, iv dosed every day after tumor transplantation", "type": "functional, organism-based"}, "[6]": {"test": "Toxicity in C57BL/6 mouse assessed as induction of abnormal death at 300 mg/kg, iv measured up to 100 days after injection", "type": "organism-based", "settings": "in vivo, 2400 h, time < 100 day"}},
  "note": "Active and inactive are the calls of the source. The rule behind the calls is not given here.",
  "data": [
    {"compound": "CC(=O)N[C@H]1[C@H]([C@H](O)[C@H](O)CNC(=O)c2cc3c(s2)-c2ccccc2OC3)O[C@@](O)(C(=O)O)C[C@@H]1O", "values": [
      {"measurement": "Activity", "setting": "B16-F10 [1]", "value": 60, "unit": "%"},
      {"measurement": "Drug uptake", "setting": "U-87 MG", "value": "Active"},
      {"measurement": "Drug uptake", "setting": "[2]", "value": "Active"},
      {"measurement": "Activity", "setting": "[3]", "value": "Non-Toxic"},
      {"measurement": "Activity", "setting": "B16-F10 [4]", "value": "Active"},
      {"measurement": "Activity", "setting": "B16-F10 [5]", "value": "Active"},
      {"measurement": "Activity", "setting": "[6]", "value": "Non-Toxic"}
    ]}
  ]
}
